# Test system: Stress protein genes
# Experiment: DNA chip mRNA expression in yeast, stress protein genes (Table 6)
# Assay type: cell-based, Saccharomyces cerevisiae S288C
# How it was run: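 Untreated cultures served as reference for log-phase S288C yeast given a growth-inhibiting, non-lethal toxicant dose for 2 h at 25° C. in YPD. Gene expression was measured on a whole-genome DNA chip from Cy3/Cy5-labeled cDNA.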
smiles,measurement,setting,value
"CN(C)C(=S)SSC(=S)N(C)C [(10), Tetramethylthiuram disulfide]",The level of expressed mRNA in the presence of chemical substance/The level of expressed mRNA in the absence of chemical substance,yeast gene YAL005C,1.8
same,The level of expressed mRNA in the presence of chemical substance/The level of expressed mRNA in the absence of chemical substance,yeast gene YAL015C,2.7
same,The level of expressed mRNA in the presence of chemical substance/The level of expressed mRNA in the absence of chemical substance,yeast gene YBL075C,6.7
same,The level of expressed mRNA in the presence of chemical substance/The level of expressed mRNA in the absence of chemical substance,yeast gene YBL093C,1.1
same,The level of expressed mRNA in the presence of chemical substance/The level of expressed mRNA in the absence of chemical substance,yeast gene YBR044C,1.2
same,The level of expressed mRNA in the presence of chemical substance/The level of expressed mRNA in the absence of chemical substance,yeast gene YBR054W,1.2
same,The level of expressed mRNA in the presence of chemical substance/The level of expressed mRNA in the absence of chemical substance,yeast gene YBR067C,1.0
same,The level of expressed mRNA in the presence of chemical substance/The level of expressed mRNA in the absence of chemical substance,yeast gene YBR072W,43.4
same,The level of expressed mRNA in the presence of chemical substance/The level of expressed mRNA in the absence of chemical substance,yeast gene YBR169C,4.3
same,The level of expressed mRNA in the presence of chemical substance/The level of expressed mRNA in the absence of chemical substance,yeast gene YCL035C,2.3
same,The level of expressed mRNA in the presence of chemical substance/The level of expressed mRNA in the absence of chemical substance,yeast gene YCR021C,1.0
same,The level of expressed mRNA in the presence of chemical substance/The level of expressed mRNA in the absence of chemical substance,yeast gene YCR060W,1.1
same,The level of expressed mRNA in the presence of chemical substance/The level of expressed mRNA in the absence of chemical substance,yeast gene YCR083W,1.8
same,The level of expressed mRNA in the presence of chemical substance/The level of expressed mRNA in the absence of chemical substance,yeast gene YDL022W,1.8
same,The level of expressed mRNA in the presence of chemical substance/The level of expressed mRNA in the absence of chemical substance,yeast gene YDL025C,4.5
same,The level of expressed mRNA in the presence of chemical substance/The level of expressed mRNA in the absence of chemical substance,yeast gene YDR033W,1.0
same,The level of expressed mRNA in the presence of chemical substance/The level of expressed mRNA in the absence of chemical substance,yeast gene YDR077W,0.7
same,The level of expressed mRNA in the presence of chemical substance/The level of expressed mRNA in the absence of chemical substance,yeast gene YDR098C,1.5
same,The level of expressed mRNA in the presence of chemical substance/The level of expressed mRNA in the absence of chemical substance,yeast gene YDR155C,1.3
same,The level of expressed mRNA in the presence of chemical substance/The level of expressed mRNA in the absence of chemical substance,yeast gene YDR258C,13.3
same,The level of expressed mRNA in the presence of chemical substance/The level of expressed mRNA in the absence of chemical substance,yeast gene YDR293C,1.2
same,The level of expressed mRNA in the presence of chemical substance/The level of expressed mRNA in the absence of chemical substance,yeast gene YDR436W,1.1
same,The level of expressed mRNA in the presence of chemical substance/The level of expressed mRNA in the absence of chemical substance,yeast gene YDR513W,3.1
same,The level of expressed mRNA in the presence of chemical substance/The level of expressed mRNA in the absence of chemical substance,yeast gene YDR519W,1.2
same,The level of expressed mRNA in the presence of chemical substance/The level of expressed mRNA in the absence of chemical substance,yeast gene YEL030W,2.5
same,The level of expressed mRNA in the presence of chemical substance/The level of expressed mRNA in the absence of chemical substance,yeast gene YEL039C,1.2
same,The level of expressed mRNA in the presence of chemical substance/The level of expressed mRNA in the absence of chemical substance,yeast gene YER042W,2.1
same,The level of expressed mRNA in the presence of chemical substance/The level of expressed mRNA in the absence of chemical substance,yeast gene YER057C,1.4
same,The level of expressed mRNA in the presence of chemical substance/The level of expressed mRNA in the absence of chemical substance,yeast gene YER103W,9.0
same,The level of expressed mRNA in the presence of chemical substance/The level of expressed mRNA in the absence of chemical substance,yeast gene YER125W,1.2
same,The level of expressed mRNA in the presence of chemical substance/The level of expressed mRNA in the absence of chemical substance,yeast gene YFL014W,5.8
same,The level of expressed mRNA in the presence of chemical substance/The level of expressed mRNA in the absence of chemical substance,yeast gene YFL016C,2.9
same,The level of expressed mRNA in the presence of chemical substance/The level of expressed mRNA in the absence of chemical substance,yeast gene YFL020C,1.4
same,The level of expressed mRNA in the presence of chemical substance/The level of expressed mRNA in the absence of chemical substance,yeast gene YFR052W,3.0
same,The level of expressed mRNA in the presence of chemical substance/The level of expressed mRNA in the absence of chemical substance,yeast gene YGL073W,2.4
same,The level of expressed mRNA in the presence of chemical substance/The level of expressed mRNA in the absence of chemical substance,yeast gene YGL115W,1.2
same,The level of expressed mRNA in the presence of chemical substance/The level of expressed mRNA in the absence of chemical substance,yeast gene YGL181W,2.3
same,The level of expressed mRNA in the presence of chemical substance/The level of expressed mRNA in the absence of chemical substance,yeast gene YGR088W,3.2
same,The level of expressed mRNA in the presence of chemical substance/The level of expressed mRNA in the absence of chemical substance,yeast gene YHL028W,0.4
same,The level of expressed mRNA in the presence of chemical substance/The level of expressed mRNA in the absence of chemical substance,yeast gene YHL046C,2.1
same,The level of expressed mRNA in the presence of chemical substance/The level of expressed mRNA in the absence of chemical substance,yeast gene YHR030C,2.5
same,The level of expressed mRNA in the presence of chemical substance/The level of expressed mRNA in the absence of chemical substance,yeast gene YHR057C,1.2
same,The level of expressed mRNA in the presence of chemical substance/The level of expressed mRNA in the absence of chemical substance,yeast gene YHR104W,2.3
same,The level of expressed mRNA in the presence of chemical substance/The level of expressed mRNA in the absence of chemical substance,yeast gene YIL011W,0.5
same,The level of expressed mRNA in the presence of chemical substance/The level of expressed mRNA in the absence of chemical substance,yeast gene YIL033C,1.3
same,The level of expressed mRNA in the presence of chemical substance/The level of expressed mRNA in the absence of chemical substance,yeast gene YIR037W,3.8
same,The level of expressed mRNA in the presence of chemical substance/The level of expressed mRNA in the absence of chemical substance,yeast gene YIR038C,4.5
same,The level of expressed mRNA in the presence of chemical substance/The level of expressed mRNA in the absence of chemical substance,yeast gene YJL128C,1.7
same,The level of expressed mRNA in the presence of chemical substance/The level of expressed mRNA in the absence of chemical substance,yeast gene YJL158C,0.5
same,The level of expressed mRNA in the presence of chemical substance/The level of expressed mRNA in the absence of chemical substance,yeast gene YJL159W,1.2
same,The level of expressed mRNA in the presence of chemical substance/The level of expressed mRNA in the absence of chemical substance,yeast gene YJL165C,1.0
same,The level of expressed mRNA in the presence of chemical substance/The level of expressed mRNA in the absence of chemical substance,yeast gene YJR045C,3.0
same,The level of expressed mRNA in the presence of chemical substance/The level of expressed mRNA in the absence of chemical substance,yeast gene YJR090C,1.2
same,The level of expressed mRNA in the presence of chemical substance/The level of expressed mRNA in the absence of chemical substance,yeast gene YKL161C,1.7
same,The level of expressed mRNA in the presence of chemical substance/The level of expressed mRNA in the absence of chemical substance,yeast gene YKL163W,1.6
same,The level of expressed mRNA in the presence of chemical substance/The level of expressed mRNA in the absence of chemical substance,yeast gene YKL164C,0.7
same,The level of expressed mRNA in the presence of chemical substance/The level of expressed mRNA in the absence of chemical substance,yeast gene YKL210W,2.9
same,The level of expressed mRNA in the presence of chemical substance/The level of expressed mRNA in the absence of chemical substance,yeast gene YKR053C,1.8
same,The level of expressed mRNA in the presence of chemical substance/The level of expressed mRNA in the absence of chemical substance,yeast gene YLL024C,2.4
same,The level of expressed mRNA in the presence of chemical substance/The level of expressed mRNA in the absence of chemical substance,yeast gene YLL026W,6.6
same,The level of expressed mRNA in the presence of chemical substance/The level of expressed mRNA in the absence of chemical substance,yeast gene YLL039C,1.5
same,The level of expressed mRNA in the presence of chemical substance/The level of expressed mRNA in the absence of chemical substance,yeast gene YLL060C,23.2
same,The level of expressed mRNA in the presence of chemical substance/The level of expressed mRNA in the absence of chemical substance,yeast gene YLR006C,1.1
same,The level of expressed mRNA in the presence of chemical substance/The level of expressed mRNA in the absence of chemical substance,yeast gene YLR109W,2.7
same,The level of expressed mRNA in the presence of chemical substance/The level of expressed mRNA in the absence of chemical substance,yeast gene YLR259C,2.6
same,The level of expressed mRNA in the presence of chemical substance/The level of expressed mRNA in the absence of chemical substance,yeast gene YML007W,2.5
same,The level of expressed mRNA in the presence of chemical substance/The level of expressed mRNA in the absence of chemical substance,yeast gene YML070W,3.9
same,The level of expressed mRNA in the presence of chemical substance/The level of expressed mRNA in the absence of chemical substance,yeast gene YMR021C,1.3
same,The level of expressed mRNA in the presence of chemical substance/The level of expressed mRNA in the absence of chemical substance,yeast gene YMR173W,8.2
same,The level of expressed mRNA in the presence of chemical substance/The level of expressed mRNA in the absence of chemical substance,yeast gene YMR186W,1.3
same,The level of expressed mRNA in the presence of chemical substance/The level of expressed mRNA in the absence of chemical substance,yeast gene YNL064C,1.8
same,The level of expressed mRNA in the presence of chemical substance/The level of expressed mRNA in the absence of chemical substance,yeast gene YNL160W,2.7
same,The level of expressed mRNA in the presence of chemical substance/The level of expressed mRNA in the absence of chemical substance,yeast gene YNL241C,7.4
same,The level of expressed mRNA in the presence of chemical substance/The level of expressed mRNA in the absence of chemical substance,yeast gene YNR076W,2.5
same,The level of expressed mRNA in the presence of chemical substance/The level of expressed mRNA in the absence of chemical substance,yeast gene YOL064C,2.7
same,The level of expressed mRNA in the presence of chemical substance/The level of expressed mRNA in the absence of chemical substance,yeast gene YOL161C,2.0
same,The level of expressed mRNA in the presence of chemical substance/The level of expressed mRNA in the absence of chemical substance,yeast gene YOR008C,1.0
same,The level of expressed mRNA in the presence of chemical substance/The level of expressed mRNA in the absence of chemical substance,yeast gene YOR009W,0.5
same,The level of expressed mRNA in the presence of chemical substance/The level of expressed mRNA in the absence of chemical substance,yeast gene YOR010C,0.7
same,The level of expressed mRNA in the presence of chemical substance/The level of expressed mRNA in the absence of chemical substance,yeast gene YOR027W,4.0
same,The level of expressed mRNA in the presence of chemical substance/The level of expressed mRNA in the absence of chemical substance,yeast gene YOR208W,2.0
same,The level of expressed mRNA in the presence of chemical substance/The level of expressed mRNA in the absence of chemical substance,yeast gene YPL059W,1.3
same,The level of expressed mRNA in the presence of chemical substance/The level of expressed mRNA in the absence of chemical substance,yeast gene YPL106C,1.8
same,The level of expressed mRNA in the presence of chemical substance/The level of expressed mRNA in the absence of chemical substance,yeast gene YPL140C,0.9
same,The level of expressed mRNA in the presence of chemical substance/The level of expressed mRNA in the absence of chemical substance,yeast gene YPL194W,3.1
same,The level of expressed mRNA in the presence of chemical substance/The level of expressed mRNA in the absence of chemical substance,yeast gene YPL223C,16.5
same,The level of expressed mRNA in the presence of chemical substance/The level of expressed mRNA in the absence of chemical substance,yeast gene YPL240C,2.6
same,The level of expressed mRNA in the presence of chemical substance/The level of expressed mRNA in the absence of chemical substance,yeast gene YPR005C,2.0
same,The level of expressed mRNA in the presence of chemical substance/The level of expressed mRNA in the absence of chemical substance,yeast gene YPR026W,3.1

# Source: patent US8192962B2, “Processes for detecting toxic substances” (Daikin Industries, Ltd., priority 2001, dated 2012)
